Experimental data from patent publication US9573899B2, “USP7 inhibitor compounds and methods of use” (Genentech, Inc., priority 2015, dated 2017).
pIC50: −log10 of the molar value.

What was measured:
[1] = biological target: T1, USP7, full-length, native C-Terminus (Homo sapiens, UniProt Q93009); test: Biochemical USP7 assay with Ubiquitin-Rho110 substrate (USP7_Ub-Rho110 Fluor); details: no pre-incubation; 1 hour reaction at room temperature; read-out: USP7 Ub-Rho110 Fluor (IC50)
T1 construct: USP7, full-length, native C-Terminus, 0.2 nM
Protocol: (§1) Biochemical USP7 assays using Ubiquitin-Rho110 as a substrate: The final assay conditions were as follows: The Reaction Buffer consisted of: 50 mM Tris (pH 7.5), 0.01% (v/v) Triton X-100, 2.5 mM Dithiothreitol, 0.1% (w/v) bovine gamma globulin (Sigma cat #G5009-25G); USP7, full-length, native C-Terminus, 0.2 nM; the substrate, Ubiquitin-Rho110 (Boston Biochem cat #U-555), 1 uM. Reactions were carried out for 1 hour at room temperature, in black 20 μL volume polystyrene ProxiPlate 384 F Plus® (PerkinElmer cat #6008260).
(§2) Test compounds, including a control USP7 inhibitor (Ub-aldehyde, Boston Biochem cat #U-201) were serially diluted in DMSO, in 384 well clear V-bottom polypropylene plates (Greiner cat #781280). Compounds in DMSO were diluted 10-fold into Reaction Buffer, to achieve 3-fold the final desired concentration. The substrate, Ubiquitin-Rho110 (Boston Biochem cat #U-555), was prepared at 3 μM (3-fold the final concentration) and 5 ul was dispensed into the reaction plate. 5 ul of the compounds (diluted in Reaction Buffer at 3-fold the final concentration) were transferred to the reaction plate. 5 ul of 0.6 nM USP7 (diluted in Reaction Buffer at 3-fold the final concentration) was transferred to the reaction plate to initiate the reaction. After 1 hour incubation at room temperature the reaction was quenched by the addition of 5 ul of 400 mM acetic acid. The enzymatic product was measured by quantifying the fluorescence signal of cleaved Rhodamine-110 using excitation at 485 nm and emission at 535 nm. When pre-incubation of USP7 with compounds was required, the order of addition of reagents was modified to pre-mix the compounds with USP7 (with a 1 hour incubation period), prior to the addition of the substrate and the initiation of the reaction period. Percentage inhibition values were calculated relative to a no enzyme control and a uninhibited enzyme control. Curve fitting and IC50 calculations were carried out using Genedata Screener software.

[2] = biological target: T1, USP7, full-length, native C-Terminus; test: Biochemical USP7 assay with Ubiquitin-Rho110 substrate, compounds pre-incubated with USP7 (USP7_Ub-Rho preInc); details: compounds pre-mixed with USP7, 1 hour incubation, before substrate; read-out: USP7 Ub-Rho preInc (IC50)
Protocol: as §1, §2

USP7 = biological target: T2, USP7 (Homo sapiens, UniProt Q93009); test: Ub-Rho110 DUB assay, Table 2, USP7; assay type: biochemical; details: for selectivity of antagonism of USP7 catalytic activity over the DUBs evaluated: conclusion from Table 2 (USP7, USP7 cat, USP47, USP5)
T2 construct: USP7, full-length, native C-Terminus, 0.2 nM

USP47 = biological target: T3, USP47 (Homo sapiens, UniProt Q96K76); test: Ub-Rho110 DUB assay, Table 2, USP47; assay type: biochemical
T3 sequence (Q96K76 1-1375): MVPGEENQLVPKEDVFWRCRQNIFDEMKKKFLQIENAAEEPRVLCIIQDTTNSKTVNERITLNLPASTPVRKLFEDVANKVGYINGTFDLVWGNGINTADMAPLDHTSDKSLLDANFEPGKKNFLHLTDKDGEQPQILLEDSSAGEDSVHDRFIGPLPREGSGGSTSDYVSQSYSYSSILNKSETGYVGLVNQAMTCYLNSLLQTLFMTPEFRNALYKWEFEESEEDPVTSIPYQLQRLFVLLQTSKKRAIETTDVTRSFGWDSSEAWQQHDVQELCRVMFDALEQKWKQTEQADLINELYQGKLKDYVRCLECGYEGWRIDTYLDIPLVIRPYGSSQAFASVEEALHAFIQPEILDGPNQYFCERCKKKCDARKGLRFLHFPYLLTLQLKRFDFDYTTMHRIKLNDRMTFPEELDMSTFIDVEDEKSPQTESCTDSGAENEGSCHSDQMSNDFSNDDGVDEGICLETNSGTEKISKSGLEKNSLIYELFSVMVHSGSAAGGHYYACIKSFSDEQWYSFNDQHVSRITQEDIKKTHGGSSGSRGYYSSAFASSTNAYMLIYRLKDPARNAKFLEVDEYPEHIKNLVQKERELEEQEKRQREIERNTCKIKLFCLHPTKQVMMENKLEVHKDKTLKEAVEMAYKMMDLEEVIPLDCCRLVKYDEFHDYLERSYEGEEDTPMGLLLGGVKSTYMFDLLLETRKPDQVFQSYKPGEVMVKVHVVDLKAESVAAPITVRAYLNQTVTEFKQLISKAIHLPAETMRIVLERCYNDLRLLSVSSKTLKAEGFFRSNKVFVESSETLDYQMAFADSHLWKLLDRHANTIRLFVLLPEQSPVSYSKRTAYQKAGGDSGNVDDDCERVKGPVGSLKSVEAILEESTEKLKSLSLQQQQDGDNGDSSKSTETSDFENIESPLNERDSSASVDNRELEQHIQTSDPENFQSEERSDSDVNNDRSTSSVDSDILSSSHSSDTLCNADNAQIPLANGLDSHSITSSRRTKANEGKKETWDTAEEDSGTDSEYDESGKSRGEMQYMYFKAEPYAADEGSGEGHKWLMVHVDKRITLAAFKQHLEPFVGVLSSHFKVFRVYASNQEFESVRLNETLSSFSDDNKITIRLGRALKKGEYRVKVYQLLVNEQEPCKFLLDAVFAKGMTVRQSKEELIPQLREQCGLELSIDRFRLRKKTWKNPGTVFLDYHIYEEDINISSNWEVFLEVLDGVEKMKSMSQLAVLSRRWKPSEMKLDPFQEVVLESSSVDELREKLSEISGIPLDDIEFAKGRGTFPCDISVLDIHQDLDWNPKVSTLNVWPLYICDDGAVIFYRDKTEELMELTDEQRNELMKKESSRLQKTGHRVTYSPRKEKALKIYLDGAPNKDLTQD

USP5 = biological target: T4, USP5 (Homo sapiens, UniProt P45974); test: Ub-Rho110 DUB assay, Table 2, USP5
T4 sequence (P45974 1-858): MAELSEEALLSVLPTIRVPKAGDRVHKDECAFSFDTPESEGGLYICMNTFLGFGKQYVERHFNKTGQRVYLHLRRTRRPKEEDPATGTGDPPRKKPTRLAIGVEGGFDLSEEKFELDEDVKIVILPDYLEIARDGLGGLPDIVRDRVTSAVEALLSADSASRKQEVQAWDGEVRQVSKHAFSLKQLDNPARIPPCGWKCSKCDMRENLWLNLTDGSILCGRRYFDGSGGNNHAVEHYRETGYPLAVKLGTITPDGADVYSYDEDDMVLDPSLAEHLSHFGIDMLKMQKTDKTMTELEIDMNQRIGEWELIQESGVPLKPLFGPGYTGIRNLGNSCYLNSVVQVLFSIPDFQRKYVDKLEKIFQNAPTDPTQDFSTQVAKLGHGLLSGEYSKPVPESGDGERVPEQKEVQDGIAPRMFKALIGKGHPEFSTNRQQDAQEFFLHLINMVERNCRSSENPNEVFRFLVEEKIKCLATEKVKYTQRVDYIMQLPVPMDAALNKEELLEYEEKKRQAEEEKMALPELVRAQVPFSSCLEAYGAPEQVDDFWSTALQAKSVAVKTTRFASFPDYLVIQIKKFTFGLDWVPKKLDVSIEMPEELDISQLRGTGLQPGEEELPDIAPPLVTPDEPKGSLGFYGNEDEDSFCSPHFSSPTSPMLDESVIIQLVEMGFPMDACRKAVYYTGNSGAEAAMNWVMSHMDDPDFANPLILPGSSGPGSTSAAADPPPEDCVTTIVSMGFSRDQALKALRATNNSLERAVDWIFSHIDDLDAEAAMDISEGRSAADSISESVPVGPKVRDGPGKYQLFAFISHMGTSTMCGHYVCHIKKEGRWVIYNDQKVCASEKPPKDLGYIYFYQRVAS

[3] = test system: p53 and p21 in HCT116 colon cancer cell lines; test: Western blot of p53 and p21 in isogenic HCT116 cell lines (FIG. 2A); assay type: cell-based, Human; details: isogenic HCT116: wild-type, USP7 null
Protocol: In 24-well plates, 0.10-0.15×10^6 (adherent) or 0.5×10^6 (suspension) cells were treated with 15 μM or 2.5 μM compounds, respectively, for 24 h in low serum prior to lysis for Western Blot analysis.

USP7 catalytic domain = USP7 catalytic domain (Homo sapiens, UniProt Q93009); test: Ub-Rho110 DUB assay, Table 2, USP7 catalytic domain; assay type: biochemical; details: read-out: Ub-Rho110 IC50, USP7 cat
Chain of USP7 catalytic domain (Q93009 214-521 limits assumed): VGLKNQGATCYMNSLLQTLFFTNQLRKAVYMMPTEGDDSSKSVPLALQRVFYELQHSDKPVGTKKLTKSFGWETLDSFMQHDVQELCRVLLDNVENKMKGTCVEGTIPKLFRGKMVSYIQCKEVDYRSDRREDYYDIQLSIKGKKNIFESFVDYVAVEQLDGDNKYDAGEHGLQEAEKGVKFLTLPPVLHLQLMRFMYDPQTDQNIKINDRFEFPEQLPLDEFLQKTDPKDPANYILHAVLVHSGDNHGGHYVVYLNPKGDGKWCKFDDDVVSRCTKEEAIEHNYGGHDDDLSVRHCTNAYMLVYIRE

T2 sequence (Q93009 whole entry): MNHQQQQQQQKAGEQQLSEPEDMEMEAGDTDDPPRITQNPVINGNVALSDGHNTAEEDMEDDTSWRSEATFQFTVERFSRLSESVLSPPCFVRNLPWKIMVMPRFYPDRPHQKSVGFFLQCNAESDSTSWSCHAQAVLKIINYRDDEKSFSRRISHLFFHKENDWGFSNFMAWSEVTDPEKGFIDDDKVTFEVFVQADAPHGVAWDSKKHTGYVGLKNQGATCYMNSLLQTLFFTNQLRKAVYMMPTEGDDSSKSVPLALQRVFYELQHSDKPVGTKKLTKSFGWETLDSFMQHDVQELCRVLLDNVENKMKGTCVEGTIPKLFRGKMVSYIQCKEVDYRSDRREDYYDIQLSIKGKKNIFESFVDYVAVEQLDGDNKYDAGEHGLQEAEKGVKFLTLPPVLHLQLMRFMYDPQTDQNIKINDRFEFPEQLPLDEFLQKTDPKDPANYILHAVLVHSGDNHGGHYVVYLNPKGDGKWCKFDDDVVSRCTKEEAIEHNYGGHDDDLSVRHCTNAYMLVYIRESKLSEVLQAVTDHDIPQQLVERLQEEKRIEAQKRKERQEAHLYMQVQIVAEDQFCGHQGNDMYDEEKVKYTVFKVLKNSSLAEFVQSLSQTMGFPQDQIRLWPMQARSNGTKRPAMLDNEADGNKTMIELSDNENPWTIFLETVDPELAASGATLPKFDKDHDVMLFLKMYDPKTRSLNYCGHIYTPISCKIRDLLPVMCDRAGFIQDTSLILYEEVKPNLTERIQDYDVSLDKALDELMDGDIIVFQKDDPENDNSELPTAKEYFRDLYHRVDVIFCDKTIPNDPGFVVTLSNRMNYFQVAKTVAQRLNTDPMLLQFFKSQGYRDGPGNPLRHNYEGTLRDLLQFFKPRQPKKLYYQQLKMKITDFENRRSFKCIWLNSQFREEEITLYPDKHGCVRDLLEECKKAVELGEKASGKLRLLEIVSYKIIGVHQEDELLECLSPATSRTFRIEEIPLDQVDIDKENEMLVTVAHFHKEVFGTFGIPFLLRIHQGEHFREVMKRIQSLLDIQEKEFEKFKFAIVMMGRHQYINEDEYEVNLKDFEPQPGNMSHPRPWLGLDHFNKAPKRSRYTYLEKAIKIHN
T1 sequence (Q93009 whole entry): as above

CCc1c(-c2ccc(O)cc2)cnc(N)c1-c1ccc(OC)cc1F [Compound 10, 4-[6-amino-4-ethyl-5-(2-fluoro-4-methoxy-phenyl)-3-pyridyl]phenol]
pIC50 [1]: 5.12 | pIC50 [2]: 4.89

CCc1c(-c2ccc(O)cc2)cnc(N)c1-c1ccc(COC)cc1 [Compound 25, 4-[6-amino-4-ethyl-5-[4-(methoxymethyl)phenyl]-3-pyridyl]phenol]
pIC50 (USP7): < 4.20 | selectivity of antagonism of USP7 catalytic activity over the DUBs evaluated (USP7): ineffective in antagonizing the activity of any DUB evaluated | pIC50 (USP47): < 3.70 | pIC50 (USP5): < 3.70 | stabilization of p53 and p21 (western blot) [3]: stabilize p53 and p21 | pIC50 (USP7 catalytic domain): < 4.20

CCc1c(-c2ccc(O)cc2)cnc(N)c1-c1ccc(O)cc1 [Compound 2, 4-[6-amino-4-ethyl-5-(4-hydroxyphenyl)-3-pyridyl]phenol]
pIC50 [1]: 5.52 | pIC50 [2]: 5.34

CCc1c(-c2ccc(C(N)=O)cc2)cnc(N)c1-c1ccc(O)cc1 [Compound 45, 4-[6-amino-4-ethyl-5-(4-hydroxyphenyl)-3-pyridyl]benzamide]
pIC50 (USP7): 5.54 | selectivity of antagonism of USP7 catalytic activity over the DUBs evaluated (USP7): selective antagonists of USP7 catalytic activity | pIC50 (USP47): < 3.70 | pIC50 [2]: 5.59 | pIC50 (USP5): < 3.70 | stabilization of p53 and p21 (western blot) [3]: not | pIC50 (USP7 catalytic domain): 5.89

CCCc1c(-c2ccc(O)cc2)cnc(N)c1-c1ccc(O)cc1 [Compound 6, 4-[6-amino-5-(4-hydroxyphenyl)-4-propyl-3-pyridyl]phenol]
pIC50 [1]: 4.45

Nc1ncc(-c2ccc(O)cc2)c(C(F)(F)F)c1-c1ccc(O)cc1 [Compound 5, 4-[6-amino-5-(4-hydroxyphenyl)-4-(trifluoromethyl)-3-pyridyl]phenol]
pIC50 [1]: 5.22 | pIC50 [2]: 5.15

CCc1c(-c2ccc(C(=O)NC)cc2)cnc(N)c1-c1ccc(O)cc1 [Compound 81, 4-[6-amino-4-ethyl-5-(4-hydroxyphenyl)-3-pyridyl]-N-methyl-benzamide]
pIC50 (USP7): 5.85 | pIC50 (USP47): < 3.70 | pIC50 [2]: 5.48 | pIC50 (USP7 catalytic domain): 6.28

CC(C)c1c(-c2ccc(O)cc2)cnc(N)c1-c1ccc(O)cc1 [Compound 3, 4-[6-amino-5-(4-hydroxyphenyl)-4-isopropyl-3-pyridyl]phenol]
pIC50 [1]: 3.71

Nc1ncc(-c2ccc(O)cc2)c(C2CC2)c1-c1ccc(O)cc1 [Compound 9, 4-[6-amino-4-cyclopropyl-5-(4-hydroxyphenyl)-3-pyridyl]phenol]
pIC50 [1]: 4.25

CCc1c(-c2cccc(CN(C)C)c2)cnc(N)c1-c1ccc(O)cc1 [Compound 12, 4-[2-amino-5-[3-[(dimethylamino)methyl]phenyl]-4-ethyl-3-pyridyl]phenol]
pIC50 [1]: 4.62

Cc1c(-c2ccc(O)cc2)cnc(N)c1-c1ccc(O)cc1 [Compound 1, 4-[6-amino-5-(4-hydroxyphenyl)-4-methyl-3-pyridyl]phenol]
pIC50 [1]: 5.11

CCc1c(-c2ccc(C(=O)NC)nc2)cnc(N)c1-c1ccc(O)cc1 [Compound 92, 5-[6-amino-4-ethyl-5-(4-hydroxyphenyl)-3-pyridyl]-N-methyl-pyridine-2-carboxamide]
pIC50 [2]: 5.82 | stabilization of p53 and p21 (western blot) [3]: stabilize p53 and p21
